Measurements from US9073880B2, “2-(2-phenylethenyl) 1,3-benzodiazepine derivatives useful for the treatment of cancer” (Yissum Research Development Company of the Hebrew …, priority 2010, dated 2015).
pIC50: −log10 of the molar value.

Key:
[1] = tested on: human breast cancer T47D cells; assay: Cell proliferation, T47D (Example 4); assay type: cell-based; conditions: compound in 2-hydroxypropyl-β-cyclodextrin
Method: (§1) Human ovary cancer A2780 cells lines were seeded at a density of 5000 cells/well, human melanoma A375 cells were plated at a density of 2,500 cells/well, human colon carcinoma HCT15 cells were plated at a density of 3,000 cells/well, human prostate carcinoma PC3 cells were plated at a density of 1,500 cells/well, human breast carcinoma MCF7 cells were plated at a density of 5,000 cells/well, human breast carcinoma MDA MB 468 cells were plated at a density of 6,000 cells/well, human myeloma U266, RPMI8226 and CAG cells were plated at a density of 10,000 cells/well. All cells were plated in 96-well plates in 90 μl growth medium containing 10% FCS, 100 units/ml penicillin and 100 μg/ml streptomycin. Compound 3 was added a day later in […] of 1% DMSO in DDW to obtain final concentrations of 0, 0.1, 0.3, 1, 3, and 10 μM. The final concentration of DMSO (0.1% DMSO) was kept constant in all samples. Following exposure of the cells to compound 3 for 72 hours at 37° C., adhered cells were fixed in 0.5% gluteraldehyde in medium for 10 min, washed three times with DDW, once with 0.1M sodium borate buffer pH 8.5 and stained with 1% methylene blue dissolved in 0.1M borate buffer solution for 60 min. Excess dye was washed out and cell-bound dye was eluted with 200 μl/well of 0.1M HCl. The optical density values were read at 630 nm in ELISA plate reader. Non-adhered cells were exposed to WST-1 reagent for 5 hours following 72 hours treatment with the inhibitors, and optical density values were read at 630 nm in ELISA plate reader. The data was analyzed in Microsoft Excel, using the vehicle control as 100% proliferation. The assays were performed in triplicates. The values of IC50 were derived from the dose-dependent growth curves obtained.
(§2) Cell proliferation assay was performed as described in Example 2. […]

[2] = tested on: human gastric cancer NCI-N87 cells; assay: Cell proliferation, NCI-N87 (Example 4); assay type: cell-based; conditions: compound in 2-hydroxypropyl-β-cyclodextrin
Method: as §1, §2

[3] = tested on: Human ovary cancer A2780 cells; assay: Cell proliferation, A2780 (Example 2); assay type: cell-based; conditions: 72 hours, 0.1% DMSO, methylene blue
Method: as §1, with “Following exposure of the cells to compound 3 for 72 hours at 37° C., adhered cells were fixed in 0.5% gluteraldehyde in medium for 10 min, washed three times with DDW, once with 0.1M sodium borate buffer pH 8.5 and stained with 1% methylene blue dissolved in 0.1M borate buffer solution for 60 min. Excess dye was washed out and cell-bound dye was eluted with 200 μl/well of 0.1M HCl.” left out, “The assays were performed in triplicates. The values of IC50 were derived from the dose-dependent growth curves obtained.” left out

IRS1 & IRS2 = assay: IRS1 and IRS2 levels in A375 cells (Example 5); assay type: cell-based, human
Method: The effect of compound 5 on IRS1 & IRS2 levels and its effect on IGF1-induced Akt/PKB activation and apoptosis in melanoma A375 cells were tested. Cells were seeded in 6-well plates (150,000 A375 cells/well) and 24 hours later medium was replaced by serum-free medium (RPMI supplemented with 100 units/ml penicillin and 100 μg/ml streptomycin), […], and then stimulated for 5 minutes with 50 ng/ml IGF-1, washed twice with PBS and lysed by boiling sample buffer (10% glycerol, 50 mM Tris-HCl, pH 6.8, 3% SDS, and 5% β-mercaptoethanol). Equal amounts of protein per lane were separated by 8% SDS-PAGE and transferred to a nitrocellulose membrane (Sartorius AG). To detect the inhibition of the Akt/PKB activation, phosphorylated proteins were immunoblotted with anti-phospho(T308)Akt (pT308-PKB) and anti-phospho-Tuberin/TSC2 (pTuberin) antibodies. To visualize cell death induced by compound 5, the intact and the cleaved PARP were immunoblotted with anti-PARP antibody. The changes in the levels of IRS1 and IRS2 were detected with specific antibodies. Detection was performed with horseradish peroxidase-conjugated secondary antibody using the ECL system. Blots were then stripped of antibodies, blocked with TBST with 5% low fat milk and re-probed with antibodies detecting both the phosphorylated and the non-phosphorylated Akt/PKB. […]

Row | Compound | pIC50 [1] | pIC50 [2] | pIC50 [3] | IRS1 and IRS2 levels (IRS1 & IRS2; 3 μM, 48 hr, FIG. 6B) | levels of IRS1 & IRS2 after washout (IRS1 & IRS2; 5 μM for 4 hr, washed, 24 hr after washout, FIG. 6C)
1 | O=c1c(O)cc2cnc(/C=C/c3cc(O)c(O)c(Br)c3)sc-2c1O [Compound 3] | 5.82 | 5.35 | 6.52 | – | –
2 | O=c1c(O)cc2cnc(/C=C/c3ccc(O)c(O)c3Br)sc-2c1O [Compound 5] | 5.74 | 5.40 | – | induced a decrease in IRS1 and IRS2 levels | remained low
